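Test compounds were applied to cells in 96-well plates for 48 hours at 5 doses. GI50: concentration for 50% inhibition of growth.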 Activity calls are given as the source filed them. No stated cut-off is given here; in the data, active = GI50 up to about 1.1 µM and inactive = higher.
Tests used:
Assay in all cases: inhibition of tumour cell growth, NCI panel, 48 h
786-0 = system: 786-0
SK-MEL-2 = system: SK-MEL-2
EKVX = system: EKVX
MDA-MB-435 = system: MDA-MB-435
NCI-H23 = system: NCI-H23
UO-31 = system: UO-31
A549 = system: A549
UACC-62 = system: UACC-62
MCF7 = system: MCF7
NCI-H226 = system: NCI-H226
SK-MEL-5 = system: SK-MEL-5
HL-60 = system: HL-60
OVCAR-4 = system: OVCAR-4
COLO 205 = system: COLO 205
MOLT-4 = system: MOLT-4
SF-268 = system: SF-268
A498 = system: A498
MDA-MB-231 = system: MDA-MB-231
SF-295 = system: SF-295
CCRF-CEM = system: CCRF-CEM

Structure (SMILES)	GI50 (786-0)	GI50 (SK-MEL-2)	GI50 (EKVX)	GI50 (MDA-MB-435)	GI50 (NCI-H23)	GI50 (UO-31)	GI50 (A549)	GI50 (UACC-62)	GI50 (MCF7)	GI50 (NCI-H226)	GI50 (SK-MEL-5)	GI50 (HL-60)	GI50 (OVCAR-4)	GI50 (COLO 205)	GI50 (MOLT-4)	GI50 (SF-268)	GI50 (A498)	GI50 (MDA-MB-231)	GI50 (SF-295)	GI50 (CCRF-CEM)
CC(C)(C)OC(=O)N1CCCC1C(=O)NC(c1ccccc1)c1ccccc1 (stereo not given)	> 100 µM (inactive)	> 100 µM (inactive)	> 100 µM (inactive)	> 100 µM (inactive)	> 100 µM (inactive)	> 100 µM (inactive)	> 100 µM (inactive)	> 100 µM (inactive)	> 100 µM (inactive)	> 100 µM (inactive)	> 100 µM (inactive)	> 100 µM (inactive)	> 100 µM (inactive)	> 100 µM (inactive)	> 100 µM (inactive)	> 100 µM (inactive)	> 100 µM (inactive)	> 100 µM (inactive)	> 100 µM (inactive)	> 100 µM (inactive)
Cc1ccc2[nH]c3c(C)c4cc[n+](C)cc4c(C)c3c2c1	0.328 µM (active)	1.7 µM (inactive)	1.27 µM (inactive)	2.45 µM (inactive)	1.23 µM (inactive)	5.19 µM (inactive)	0.325 µM (active)	2.68 µM (inactive)	1.95 µM (inactive)	0.74 µM (active)	1.65 µM (inactive)	5.12 µM (inactive)	2.54 µM (inactive)	0.828 µM (active)	5.87 µM (inactive)	0.441 µM (active)	0.891 µM (active)	0.931 µM (active)	0.462 µM (active)	3.06 µM (inactive)

— ChEMBL document CHEMBL1201862, “PubChem BioAssay data set” (2004)
